Reference: publication PMC6572135, “N-Methyl-D-glucamine–Calix[4]resorcinarene Conjugates: Self-Assembly and Biological Properties” (Molecules, 2019)
Converted amounts (≈) assume the structure as drawn.

Legend:
[1] = Dynamic light scattering, hydrodynamic diameter; assay type: physicochemical; conditions: water
[2] = Tensiometry (surface tension, Du-Noüy ring), critical aggregation concentration; assay type: physicochemical; conditions: 25 °C
Procedure: In the next step of the study of GCR self-assembly the tensiometry method was used. Surface tension decreases with increasing GCR-1 concentration, but above the CAC (15 mM) the slope angle of the dependence changes (Figure 2). […] Concentration point of 15 mM, at which occurs inflection of surface tension dependence, corresponds to CAC that is in good agreement with conductometric value. The tensiometric CAC value of GCR-2 (3.3 mM) is slightly different from the conductometric value (7.9 mM, Table 1). The tensiometry method is well known to fix the changes of the mutual disposition of the molecules at the water–air interface, whereas conductometry measures the number and mobility of ions in the bulk solution. The CAC values obtained for GCR-2 are lower compared to those for GCR-1. The improved ability to aggregation of GCR-2 in comparison with GCR-1 may be due higher hydrophobicity of GCR-2. The relations between the surface tension and the concentration of macrocycle solution were illustrated in Figure 8. […] The first inflection point was determined after a concentration of 10 mM, which can be correlated with the CAC value in the aqueous environment. […] The turning point of the tensiometric curve for GCR-2 can be determined as 3.3 mM that is same as in water. […]

[3] = UV spectroscopy (absorption at 500 nm), critical aggregation concentration; assay type: physicochemical; conditions: water solution; GCR-2 in the presence of two-fold excess of MG
Procedure: Consequently, there is a chance that GCR-1 aggregates form not only by hydrogen bonds between hydroxylic groups but also by electrostatic interaction between negatively charged sulfonate groups on the lower rim and partially-positively charged meglumine groups on the upper rim. The change of optical density at 500 nm with increasing GCR-1 concentration has a nonlinear character (Figure 3b). The linear dependence breaks after 10 mM that correlates well with the CAC obtained by conductometry and tensiometry, and this violation of Lambert-Beer law is due to formation of GCR-1 aggregates in solution.
Dependence of GCR-2 at 500 nm on its concentration also loses linearity at higher 7.2 mM (Figure 3b). This is because the dissolved molecules of GCR-2 aggregate that confirms by conductometry and tensiometry. The obtained values of the correlation coefficients r^2 calculated for both calixarenes in a wide concentration range depict that GCR-2 has a greater ability to aggregate than GCR-1. […] Probably, the short methyl groups fail to form a nonpolar core capable of incorporating hydrophobic guests. Thus, the cooperative effect of hydrogen bonds and π-stacking between GCR-2 molecules contribute to formation of compact aggregates incapable to solubilization of hydrophobic molecules. […]

S. aureus 209P = assay: Bacteriostatic activity (MIC), dilution method; assay type: cell-based; conditions: Staphylococcus aureus, read-out: Minimal Inhibiting Concentration (MIC)
Procedure: (§1) In vitro bacteriostatic and fungistatic activities of the macrocycles were evaluated against pathogenic representatives of Gram-positive bacteria (Staphylococcus aureus 209p, Bacillus cereus 8035), Gram-negative bacteria (Pseudomonas aeruginosa 9027, Escherichia coli F-50), and yeast (Trichophyton mentagrophytes var. gypseum 1773, Aspergillus niger BKMF-1119, Candida albicans 885–653). Minimal inhibitory concentrations (MICs) were estimated by conventional dilution methods for bacteria and fungi. The antibacterial and antifungal assays were performed in Hottinger broth (HiMe-dia Laboratories Pvt. Ltd. Mumbai, India) and Sabouraud dextrose broth (HiMedia Laboratories Pvt. Ltd.) (bacteria 3 × 10^5 cfu/mL and yeast 2 × 10^4 cfu/mL). The bactericidal and fungicidal activities were determined as described earlier. The tests were repeated three times.

B. cereus 8035 = assay: Bacteriostatic activity (MIC), dilution method; assay type: cell-based; conditions: Bacillus cereus; B. cereus 8035, bacteriostatic activity; read-out: Minimal Inhibiting Concentration (MIC)
Procedure: as §1

[4] = Transmission electron microscopy of aggregates; assay type: physicochemical; conditions: aqueous solution mixture of GCR-2 with two-fold excess of MG
Procedure: In a mixed 1 mM GCR-2–2 mM MG system particles with a hydrodynamic diameter of 2 nm were formed, which correlates well with the size of single macrocycle molecules. In a 15 mM GCR-2–30 mM MG mixed system particles with 3.8 nm diameter were formed. Such a size approximately corresponds to double the length of a GCR-2 molecule. This indicates of formation of spherical micelles by virtue of lateral packaging of aromatic walls by head-to-head contact due to π–stacking and hydrogen bonds between neighboring GCR-2 molecules as depicted in Figure 6b. Such an aggregation mode is similar to the self-assembly behavior described for other calixarenes. The zeta-potential of obtained particles is −17.4 mV which is attributable primarily to hydroxylic groups. The formation of little spherical particles was further affirmed by TEM images (Figure 5b). In comparison with the nanostructure of GCR-1 aggregates, smaller nanostructures with a diameter of ca. 5 ± 2 nm were formed in the aqueous solution mixture of GCR-2, which was in good accordance with the DLS measurements.
TEM images were recorded on a HT7700 TEM instrument (Hitachi, Tokyo, Japan) operated at 110 kV accelerating voltage. The samples with 20 mM solutions were ultrasonicated in water for 10 min and then dispersed on 300 mesh carbon-coated copper grid.

Hydrodynamic diameter ([1]; 15 mM GCR-2–30 mM MG mixed system): 3.8 nm | Hydrodynamic diameter ([1]; mixed 1 mM GCR-2–2 mM MG system): 2 nm | First inflection / turning point of the tensiometric curve ([2]; 50% DMSO–50% water): 3.3 mM | CAC, tensiometry ([2]; water solution, GCR-2 in the presence of two-fold excess of MG): 3.3 mM | CAC, UV spectroscopy (loss of linearity of absorption at 500 nm) [3]: 7.2 mM | MIC (S. aureus 209P): 130 ± 10 µM (≈ 179 µg/mL) | MIC (B. cereus 8035): 250 µM (≈ 343 µg/mL) | Diameter of nanostructures by TEM [4]: ca. 5 ± 2 nm
SMILES: CC1c2cc(c(O)c(CN(C)C[C@@H](O)[C@H](O)[C@@H](O)[C@@H](O)CO)c2O)C(C)c2cc(c(O)c(CN(C)C[C@@H](O)[C@H](O)[C@@H](O)[C@@H](O)CO)c2O)C(C)c2cc(c(O)c(CN(C)C[C@@H](O)[C@H](O)[C@@H](O)[C@@H](O)CO)c2O)C(C)c2cc1c(O)c(CN(C)C[C@@H](O)[C@H](O)[C@@H](O)[C@@H](O)CO)c2O (stereo partly drawn) [GCR-2, N-methyl-D-glucaminemethyl methylcalix[4]resorcinarene]
